Assay results taken from US20240254089A1, “MODULATORS OF MAS-RELATED G-PROTEIN RECEPTOR X4 AND RELATED PRODUCTS AND METHODS” (ESCIENT PHARMACEUTICALS, INC., priority 2020, published 2024).
Read-outs that look alike come from different tables or passages of the source.

Target: T1, human MRGPR X4 (Homo sapiens, UniProt Q96LA9)
T1 construct: expressed in transfected cells
Test: MRGPR X4 antagonist activity, IP-One Gq HTRF assay in stably transfected HEK cells
Assay type: cell-based
Outline: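 Human MRGPR X4-expressing HEK cells, 20,000/well, were incubated with compound (10-point curve, 10 uM top, 1:3 dilutions) plus agonist (10 μM bilirubin, 20 μM deoxycholic acid or 100 μM conjugated bilirubin) in Tris/NaCl/LiCl buffer, pH 8, for 1 h at 37 °C, then 30 min at room temperature. IP-1 was read by HTRF, and IC50 was taken from the HTRF ratio.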

[1] = versus 20 μM deoxycholic acid agonist, HEK cells expressing human MRGPR X4, read-out: MRGPRX4 Antagonist Activity

T1 sequence (Q96LA9 whole entry): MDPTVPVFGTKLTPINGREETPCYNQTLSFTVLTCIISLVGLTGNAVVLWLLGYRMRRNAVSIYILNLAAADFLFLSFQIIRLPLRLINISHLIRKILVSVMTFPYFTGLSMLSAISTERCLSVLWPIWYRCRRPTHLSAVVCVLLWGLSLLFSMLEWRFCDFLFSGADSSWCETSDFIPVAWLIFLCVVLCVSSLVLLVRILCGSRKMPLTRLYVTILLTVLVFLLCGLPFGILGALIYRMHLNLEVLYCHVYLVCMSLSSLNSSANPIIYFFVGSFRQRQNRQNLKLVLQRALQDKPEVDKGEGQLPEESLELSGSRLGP

Row | SMILES | IC50 [µM] | IC50 [1] [µM]
1 | O=C(NCCc1nnc2ccccn12)c1nn(CCc2ccc(C(F)(F)F)cc2)c2ccccc12 [Compound 441] | 1 to 2.5 | –
2 | O=C(NCCc1nnc2ccccn12)c1nn(CCc2ccc(Cl)cc2)c2ccccc12 [Compound 442] | – | > 2.5
3 | O=C(CCn1nc(C(=O)NCCc2nnc3ccccn23)c2ccccc21)c1ccc(F)cc1 [Compound 443] | – | > 2.5
4 | CN1CCN(CCCn2nc(C(=O)NCCc3nnc4ccccn34)c3ccccc32)CC1 [Compound 444] | > 2.5 | –
5 | C#Cc1ccc(Cn2nc(C(=O)NCCc3nnc4ccccn34)c3ccccc32)cc1 [Compound 445, N-(2-([1,2,4]triazolo[4,3-a]pyridin-3-yl)ethyl)-1-(4-ethynylbenzyl)-1H-indazole-3-carboxamide] | 0.1 to 0.5 | –
6 | N#Cc1cccc(Cn2nc(C(=O)NCCc3nnc4ccccn34)c3ccccc32)c1 [Compound 446] | 1 to 2.5 | –
7 | CCc1ccc(Cn2nc(C(=O)NCCc3nnc4ccccn34)c3ccccc32)cc1 [Compound 447] | 0.1 to 0.5 | –
8 | COc1ccc(Cn2nc(C(=O)NCCc3nnc4ccccn34)c3ccccc32)nc1 [Compound 448] | > 2.5 | –
9 | Cc1c(Cn2nc(C(=O)NCCc3nnc4ccccn34)c3ccccc32)cccc1-c1ccccc1 [Compound 449] | 0.1 to 0.5 | –
10 | Cc1nccn1-c1ccc(Cn2nc(C(=O)NCCc3nnc4ccccn34)c3ccccc32)cc1 [Compound 450] | – | > 2.5
11 | CN(C)c1cccc(Cn2nc(C(=O)NCCc3nnc4ccccn34)c3ccccc32)c1 [Compound 451] | 0.1 to 0.5 | –
12 | Cn1ncc2cc(Cn3nc(C(=O)NCCc4nnc5ccccn45)c4ccccc43)ccc21 [Compound 452] | 0.501 to 1 | –
13 | COc1ccc2ccccc2c1Cn1nc(C(=O)NCCc2nnc3ccccn23)c2ccccc21 [Compound 453] | 1 to 2.5 | –
14 | O=C(NCCc1nnc2ccccn12)c1nn(Cc2nccc3ccccc23)c2ccccc12 [Compound 454] | 1 to 2.5 | –
15 | O=C(NCCc1nnc2ccccn12)c1nn(Cc2cnc3ccccc3c2)c2ccccc12 [Compound 455] | 0.1 to 0.5 | –
16 | CC(C)c1cccc(Cn2nc(C(=O)NCCc3nnc4ccccn34)c3ccccc32)c1 [Compound 456] | 0.1 to 0.5 | –
17 | Cc1cccc(C(F)(F)F)c1Cn1nc(C(=O)NCCc2nnc3ccccn23)c2ccccc21 [Compound 457] | > 2.5 | –
18 | O=C(NCCc1nnc2ccccn12)c1nn(Cc2ccc3ncccc3c2)c2ccccc12 [Compound 458] | 0.501 to 1 | –
19 | O=C(NCCc1nnc2ccccn12)c1nn(Cc2cccc(C(F)(F)F)c2F)c2ccccc12 [Compound 459] | 0.1 to 0.5 | –
20 | Cn1ncc2cccc(Cn3nc(C(=O)NCCc4nnc5ccccn45)c4ccccc43)c21 [Compound 460] | 0.501 to 1 | –
21 | O=C(NCCc1nnc2ccccn12)c1nn(Cc2ccc(-n3cccn3)cc2)c2ccccc12 [Compound 461] | 1 to 2.5 | –
22 | CC(C)(C#N)c1ccc(Cn2nc(C(=O)NCCc3nnc4ccccn34)c3ccccc32)cc1 [Compound 462] | 1 to 2.5 | –
23 | O=C(NCCc1nnc2ccccn12)c1nn(Cc2ccc(OC(F)F)cc2)c2ccccc12 [Compound 463] | < 0.1 | –
24 | N#Cc1ccc(Cn2nc(C(=O)NCCc3nnc4ccccn34)c3ccccc32)cn1 [Compound 464] | 1 to 2.5 | –
25 | O=C(NCCc1nnc2ccccn12)c1nn(Cn2nnc3ccccc32)c2ccccc12 [Compound 465] | 0.1 to 0.5 | –
26 | N#Cc1ccc(Cn2nc(C(=O)NCCc3nnc4ccccn34)c3ccccc32)s1 [Compound 466] | 0.1 to 0.5 | –

Row | SMILES | IC50 [µM] | IC50 [1] [µM]
27 | Cn1cc(C(=O)Cn2nc(C(=O)NCCc3nnc4ccccn34)c3ccccc32)cn1 [Compound 467] | 0.1 to 0.5 | –
28 | Cc1ccc(C(=O)Cn2nc(C(=O)NCCc3nnc4ccccn34)c3ccccc32)cc1 [Compound 468] | – | 1 to 2.5
29 | O=C(NCCc1nnc2ccccn12)c1nn(CC(=O)C2CCCCC2)c2ccccc12 [Compound 469] | 1 to 2.5 | –
30 | O=C(NCCc1nnc2ccccn12)c1nn(CCCOc2ccc(Cl)cc2)c2ccccc12 [Compound 470] | – | > 2.5
31 | O=C(NCCc1nnc2ccccn12)c1nn(CCc2ccc(F)cc2F)c2ccccc12 [Compound 471] | – | > 2.5
32 | O=C(Cn1nc(C(=O)NCCc2nnc3ccccn23)c2ccccc21)NCC1CCCCC1 [Compound 472] | – | > 2.5
33 | COc1ccc(Cn2nc(C(=O)NCCc3nnc4ccccn34)c3ccccc32)c2ccccc12 [Compound 473] | 0.1 to 0.5 | –
34 | O=C(NCCc1nnc2ccccn12)c1nn(Cc2cccc3ccccc23)c2ccccc12 [Compound 474] | 0.1 to 0.5 | –
35 | O=C(NCc1cccc2nc[nH]c12)c1nn(Cc2ccc(Cl)cc2)c2ccccc12 [Compound 475] | > 2.5 | –
36 | O=C(NCCc1nnc2ccccn12)c1nn(Cc2ccn3ccnc3c2)c2ccccc12 [Compound 476] | > 2.5 | –
37 | O=C(NCCc1nnc2ccccn12)c1nn(Cc2ccc3nsnc3c2)c2ccccc12 [Compound 477] | < 0.1 | –
38 | O=C(NCCc1nnc2ccccn12)c1nn(Cc2ccc(-c3cnco3)cc2)c2ccccc12 [Compound 478] | 0.501 to 1 | –
39 | Cc1cc(C)c(Cn2nc(C(=O)NCCc3nnc4ccccn34)c3ccccc32)c(C)c1 [Compound 479] | 0.1 to 0.5 | –
40 | CCn1c(Cn2nc(C(=O)NCCc3nnc4ccccn34)c3ccccc32)nc2ccccc21 [Compound 480] | 0.501 to 1 | –
41 | O=C(Cn1nc(C(=O)NCCc2nnc3ccccn23)c2ccccc21)c1ccc(Cl)cc1 [Compound 481] | 0.501 to 1 | –
42 | O=C(Cn1nc(C(=O)NCCc2nnc3ccccn23)c2ccccc21)c1ccc(Cl)c(Cl)c1 [Compound 482] | – | < 0.1
43 | Cc1ccc(C(=O)Cn2nc(C(=O)NCCc3nnc4ccccn34)c3ccccc32)c(C)c1 [Compound 483] | 0.501 to 1 | –
44 | COc1ccc(C(=O)Cn2nc(C(=O)NCCc3nnc4ccccn34)c3ccccc32)cc1 [Compound 484] | – | 1 to 2.5
45 | O=C(NCCc1nnc2ccccn12)c1nn(CCOc2ccc(Cl)cc2)c2ccccc12 [Compound 485] | 0.501 to 1 | –
46 | COc1ccccc1OCCn1nc(C(=O)NCCc2nnc3ccccn23)c2ccccc21 [Compound 486] | 0.501 to 1 | –
47 | O=C(NCCc1nnc2ccccn12)c1nn(CCCC2CCCC2)c2ccccc12 [Compound 487] | 0.1 to 0.5 | –
48 | O=C(NCCc1nnc2ccccn12)c1nn(CC2CCCCC2)c2ccccc12 [Compound 488] | 0.501 to 1 | –
49 | O=C(NCCc1nnc2ccccn12)c1nn(CC2CCC(F)(F)CC2)c2ccccc12 [Compound 489] | 0.501 to 1 | –
50 | O=C(NCCc1nnc2ccccn12)c1nn(Cc2ccc(C3CC3)cc2)c2ccccc12 [Compound 490] | < 0.1 | –
51 | O=C(NCCc1nnc2ccccn12)c1nn(Cc2cccc3c2CCO3)c2ccccc12 [Compound 491] | 0.1 to 0.5 | –
52 | CN(C)c1cccc(Cn2nc(C(=O)NCCc3nnc4ccccn34)c3ccccc32)n1 [Compound 492] | > 2.5 | –

Row | SMILES | IC50 [µM] | IC50 [1] [µM]
53 | O=C(NCCc1nnc2ccccn12)c1nn(Cc2ccc3occc3c2)c2ccccc12 [Compound 493] | < 0.1 | –
54 | O=C(NCCc1nnc2ccccn12)c1nn(Cc2ccc3c(c2)CCC3)c2ccccc12 [Compound 494] | < 0.1 | –
55 | O=C(NCCc1nnc2ccccn12)c1nn(Cc2ccc3sccc3c2)c2ccccc12 [Compound 495] | < 0.1 | –
56 | O=C(NCCc1nnc2ccccn12)c1nn(Cc2cc3ccccc3o2)c2ccccc12 [Compound 496] | < 0.1 | –
57 | O=C(NCCc1nnc2ccccn12)c1nn(Cc2nc3ccccc3s2)c2ccccc12 [Compound 497] | < 0.1 | –
58 | O=C(NCCc1nnc2ccccn12)c1nn(Cc2cnn(-c3ccccc3)c2)c2ccccc12 [Compound 498] | 0.1 to 0.5 | –
59 | COc1ccc(-c2nc(Cn3nc(C(=O)NCCc4nnc5ccccn45)c4ccccc43)cs2)cc1 [Compound 499] | 0.501 to 1 | –
60 | O=C(NCCc1nnc2ccccn12)c1nn(Cc2cc(-c3ccc4c(c3)OCO4)no2)c2ccccc12 [Compound 500] | – | 1 to 2.5
61 | O=C(NCCc1nnc2ccccn12)c1nn(Cc2cnc(C(F)(F)F)s2)c2ccccc12 [Compound 501] | 0.1 to 0.5 | –
62 | O=C(NCCc1nnc2ccccn12)c1nn(Cc2cn3cc(Br)ccc3n2)c2ccccc12 [Compound 502] | > 2.5 | –
63 | O=C(Cn1nc(C(=O)NCCc2nnc3ccccn23)c2ccccc21)c1cc2ccccc2o1 [Compound 503] | – | 0.501 to 1
64 | O=C(NCCc1nnc2ccccn12)c1nn(CCC2CCCC2)c2ccccc12 [Compound 504] | 0.501 to 1 | –
65 | O=C(NCCc1nnc2ccccn12)c1nn(CCc2ccc(Cl)c(Cl)c2)c2ccccc12 [Compound 505] | 1 to 2.5 | –
66 | COc1ccccc1CCCn1nc(C(=O)NCCc2nnc3ccccn23)c2ccccc21 [Compound 506] | – | > 2.5
67 | O=C(NCCc1nnc2ccccn12)c1nn(Cc2ccc3c(c2)OC(F)(F)O3)c2ccccc12 [Compound 507] | 0.1 to 0.5 | –
68 | O=C(NCCc1nnc2ccccn12)c1nn(Cc2ccc3c(c2)OCO3)c2ccccc12 [Compound 508] | 0.1 to 0.5 | –
69 | O=C(NCCc1nnc2ccccn12)c1nn(Cc2cc(F)cc(C(F)(F)F)c2)c2ccccc12 [Compound 509] | 0.1 to 0.5 | –
70 | CS(=O)(=O)c1cccc(Cn2nc(C(=O)NCCc3nnc4ccccn34)c3ccccc32)c1 [Compound 510] | – | > 2.5
71 | O=C(NCCc1nnc2ccccn12)c1nn(Cc2nc(C3CCC3)no2)c2ccccc12 [Compound 511] | 0.1 to 0.5 | –
72 | O=C(NCCc1nnc2ccccn12)c1nn(Cc2csc(-c3ccccc3)n2)c2ccccc12 [Compound 512] | 0.1 to 0.5 | –
73 | O=C(NCCc1nnc2ccccn12)c1nn(Cc2nc(C(F)(F)F)no2)c2ccccc12 [Compound 513] | > 2.5 | –
74 | Cc1oc(-c2ccccc2F)nc1Cn1nc(C(=O)NCCc2nnc3ccccn23)c2ccccc21 [Compound 514] | 0.1 to 0.5 | –
75 | Cn1nccc1Cn1nc(C(=O)NCCc2nnc3ccccn23)c2ccccc21 [Compound 515] | > 2.5 | –
76 | O=C(NCCc1nnc2ccccn12)c1nn(Cc2nc3ccccc3[nH]c2=O)c2ccccc12 [Compound 516] | > 2.5 | –
77 | O=C(Cn1nc(C(=O)NCCc2nnc3ccccn23)c2ccccc21)c1ccc(F)c(F)c1 [Compound 517] | 1 to 2.5 | –
